Here are results for one compound from patent US20150329558A1, “FUSED HETEROCYCLIC COMPOUNDS AS ION CHANNEL MODULATORS” (Gilead Sciences, Inc., priority 2011, published 2015).

Structures are written as SMILES. Like-named read-outs stand apart in the source and are kept apart here.

One data set deals with T1, Human Nav1.2 (Homo sapiens, UniProt Q99250).
T1 construct: expressed in transfected cells
The experiment in a line: Nav1.2 use-dependent block, whole-cell voltage clamp. The conditions noted are these: use-dependent block 10 Hz, read-out: NAv1.2*-CHAN TEST-UDB-10 HZ-. The data set is classed as cell-based. The source says: Wild-type (WT) cDNA stably transfected in Chinese hamster ovary (CHO) cells is used to record INa. Unless otherwise noted, all reagents are purchased from Sigma-Aldrich (St Louis, Mo., U.S.A.).
Whole-cell voltage-clamp recordings are used to measure the biophysical properties of WT. Briefly, the pipette solution consists of (in mM) 110 CsF, 10 NaF, 20 CsCl, 2 EGTA, 10 HEPES, with a pH of 7.35 and osmolarity of 300 mOsmol/kg. The bath (control) solution contains in (mM): 145 NaCl, 4 KCl, 1.8 CaCl2, 1 MgCl2, 10 dextrose, 10 HEPES, with a pH of 7.35 and osmolarity of 310 mOsmol/kg. Cells are allowed to stabilize for 10 min after establishment of the whole-cell configuration before current is measured. Series resistance is compensated 90% to assure that the command potential is reached within microseconds with a voltage error <2 mV. Leak currents are subtracted by using an online P/4 procedure and all currents are low-pass Bessel filtered at 5 kHz and digitized at 50 kHz.
Tonic block of peak current is measured using a step to −10 mV (20 ms) from a holding potential of −120 mV (0.2 Hz). Use-dependent block of peak current is measured during pulse number 300 of a pulse train (−10 mV, 5 ms, 300 pulses, 10 Hz or 25 Hz) from a holding potential of −120 mV. Two sequential pulse train stimulations are averaged to obtain mean current traces for each recording condition, which are then used for offline subtraction and analysis.
For use-dependent studies, cells are stimulated with depolarizing pulse trains (−10 mV, 5 ms, 300 pulses, 10 and 25 Hz) from a holding potential of −120 mV. Currents are then normalized to the peak current recorded in response to the first pulse in each frequency train. For tonic block studies, peak current is evaluated in response to a 20 ms depolarization to −10 mV (0.2 Hz). Data analysis is performed using Clampfit 9.2 (Axon Instruments, Union City, Calif., U.S.A), Excel 2002 (Microsoft, Seattle, Wash., U.S.A.), and OriginPro 7.0 (OriginLab, Northampton, Mass., U.S.A) software. Results are presented as mean±SEM.
A stock solution of 10 mM compound of Formula I is prepared in 0.1 M HCl or DMSO. A fresh dilution of the compound of Formula I in the bath solution is prepared every experimental day and the pH is readjusted to 7.35 as necessary. The final DMSO concentration was kept at 0.1% in all solutions. Direct application of the perfusion solution to the clamped cell is achieved using the Perfusion Pencil system (Automate, Berkeley, Calif.). Direct cell perfusion is driven by gravity at a flow rate of 350 μL/min using a 250 micron tip. This system sequesters the clamped cell within a perfusion stream and enables complete solution exchange within 1 second. The clamped cell is perfused continuously starting immediately after establishing the whole-cell configuration. Control currents are measured during control solution perfusion.
Solutions are perfused for three minutes prior to current recordings to allow equilibrium (tonic) drug block. Tonic block of peak currents is measured from this steady-state condition. Three sequential current traces are averaged to obtain a mean current for each recording. The mean current traces are utilized for offline analysis. Use-dependent block of peak current is measured during pulse number 300 of the pulse train, (−10 mV, 5 ms, 300 pulses, 10 Hz) from a holding potential of −120 mV. Two sequential pulse train stimulations are averaged to obtain mean current traces for each recording condition, which are then used for offline subtraction and analysis. Where appropriate, concentration inhibition curves are fit with the Hill equation: I/Imax=1/[1+10̂(log IC50−I)*k], where IC50 is the concentration that produces half inhibition and k is the Hill slope factor.

Data set [1] deals with wild-type human cardiac sodium channel, hNav1.5 (late INa) (Homo sapiens, UniProt Q14524). The data set is described as follows: Late INa screening assay (QPatch whole cell patch clamp). The data set is classed as cell-based. In outline:
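Compounds tested at 1 μM final in extracellular solution against tefluthrin (10 μM)-enhanced late current. Automated patch clamp (23-25° C) on HEK293 expressing alpha subunit alone: −120 mV holding, 250 ms depolarization to −20 mV every 10 s. Read-out is percent inhibition of mean current over 225–250 ms.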

Data set [2] in a line: Microsomal stability assay, human. In kind it is in vitro ADME. The conditions noted are these: metabolic stability, human liver microsomes 0.5 mg/mL, substrate 3 uM. In outline:
(§1)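 Liver microsomes at 0.5 mg/mL protein in 100 mM KPO4 buffer, incubated with 3 uM compound and NADPH-regenerating system, run in duplicate. Samples taken at 2, 12, 25, 45 and 65 min and quenched in MeOH/ACN/water before analysis.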
In general terms: Liver microsomes are vesicles of endoplasmic reticulum, rich in cytochrome P450 enzymes.

Data set [3] is described as follows: Microsomal stability assay, rat. In kind it is in vitro ADME. The conditions noted are these: metabolic stability, rat liver microsomes 0.5 mg/mL, substrate 3 uM. In outline:
as §1

In the next data set the target is T2, hNav1.1 (Homo sapiens, UniProt P35498).
T2 construct: expressed in transfected cells; host or cells: HEK293, transient transfection (α1:β1:β2 = 10:1:1)
The experiment in a line: Nav1.1 use-dependent block, whole-cell voltage clamp. The data set is classed as cell-based. The note with it: use-dependent block 10 Hz, read-out: NAv1.1*-CHAN TEST-UDB-10 HZ-.

Data set [4] in a line: Microsomal stability assay, dog. In kind it is in vitro ADME. The conditions noted are these: metabolic stability, dog liver microsomes 0.5 mg/mL, substrate 3 uM. The method, boiled down:
as §1

wild-type human cardiac sodium channel, hNav1.5 (late INa), sequence (Q14524 whole entry): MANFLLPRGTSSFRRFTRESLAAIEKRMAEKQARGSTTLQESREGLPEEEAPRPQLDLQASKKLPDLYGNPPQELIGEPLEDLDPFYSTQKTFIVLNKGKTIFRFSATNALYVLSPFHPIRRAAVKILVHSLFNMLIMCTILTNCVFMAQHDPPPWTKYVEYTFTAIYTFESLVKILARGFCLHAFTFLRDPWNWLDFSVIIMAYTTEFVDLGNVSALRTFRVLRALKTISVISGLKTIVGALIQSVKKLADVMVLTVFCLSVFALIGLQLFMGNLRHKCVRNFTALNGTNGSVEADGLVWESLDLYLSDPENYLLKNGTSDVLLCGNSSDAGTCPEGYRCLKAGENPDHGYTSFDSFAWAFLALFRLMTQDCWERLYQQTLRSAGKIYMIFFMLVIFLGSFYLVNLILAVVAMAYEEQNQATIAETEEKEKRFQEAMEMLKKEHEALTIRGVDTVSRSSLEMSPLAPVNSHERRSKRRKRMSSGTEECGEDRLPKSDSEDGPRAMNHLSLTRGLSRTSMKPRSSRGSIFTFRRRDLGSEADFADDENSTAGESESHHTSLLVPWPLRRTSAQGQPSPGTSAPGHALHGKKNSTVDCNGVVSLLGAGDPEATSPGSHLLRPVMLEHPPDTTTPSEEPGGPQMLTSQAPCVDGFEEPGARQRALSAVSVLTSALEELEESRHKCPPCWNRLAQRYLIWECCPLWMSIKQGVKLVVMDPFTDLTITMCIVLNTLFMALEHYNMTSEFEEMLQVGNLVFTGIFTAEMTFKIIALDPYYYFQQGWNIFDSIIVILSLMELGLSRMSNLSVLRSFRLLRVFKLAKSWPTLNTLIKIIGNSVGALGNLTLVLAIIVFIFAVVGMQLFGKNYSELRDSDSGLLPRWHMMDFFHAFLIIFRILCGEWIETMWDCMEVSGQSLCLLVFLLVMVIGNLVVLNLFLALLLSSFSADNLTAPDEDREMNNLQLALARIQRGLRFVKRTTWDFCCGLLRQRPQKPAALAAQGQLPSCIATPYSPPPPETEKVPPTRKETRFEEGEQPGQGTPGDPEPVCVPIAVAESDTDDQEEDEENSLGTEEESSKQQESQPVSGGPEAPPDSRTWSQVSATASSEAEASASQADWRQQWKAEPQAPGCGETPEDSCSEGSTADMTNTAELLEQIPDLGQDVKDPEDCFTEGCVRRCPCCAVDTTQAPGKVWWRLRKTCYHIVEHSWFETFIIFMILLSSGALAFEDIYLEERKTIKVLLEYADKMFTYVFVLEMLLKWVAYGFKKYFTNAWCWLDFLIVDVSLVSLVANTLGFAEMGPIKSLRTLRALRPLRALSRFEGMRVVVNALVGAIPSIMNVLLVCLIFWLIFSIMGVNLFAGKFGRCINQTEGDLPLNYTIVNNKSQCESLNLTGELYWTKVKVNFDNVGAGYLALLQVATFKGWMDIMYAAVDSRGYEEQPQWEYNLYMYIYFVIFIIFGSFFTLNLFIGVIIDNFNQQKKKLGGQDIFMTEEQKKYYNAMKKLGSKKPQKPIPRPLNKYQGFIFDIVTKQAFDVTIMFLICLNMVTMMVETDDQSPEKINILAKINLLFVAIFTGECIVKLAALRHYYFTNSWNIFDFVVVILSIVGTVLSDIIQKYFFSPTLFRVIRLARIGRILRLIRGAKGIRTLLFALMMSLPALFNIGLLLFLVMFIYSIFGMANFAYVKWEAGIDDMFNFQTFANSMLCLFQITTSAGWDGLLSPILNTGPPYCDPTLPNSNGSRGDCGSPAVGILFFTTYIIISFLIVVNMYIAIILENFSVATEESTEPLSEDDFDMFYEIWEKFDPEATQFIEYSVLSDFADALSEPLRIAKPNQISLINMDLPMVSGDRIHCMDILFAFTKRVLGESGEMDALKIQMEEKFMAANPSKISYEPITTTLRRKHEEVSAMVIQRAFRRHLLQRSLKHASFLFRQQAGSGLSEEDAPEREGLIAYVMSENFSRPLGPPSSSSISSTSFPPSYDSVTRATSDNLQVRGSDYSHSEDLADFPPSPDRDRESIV
T1 sequence (Q99250 whole entry): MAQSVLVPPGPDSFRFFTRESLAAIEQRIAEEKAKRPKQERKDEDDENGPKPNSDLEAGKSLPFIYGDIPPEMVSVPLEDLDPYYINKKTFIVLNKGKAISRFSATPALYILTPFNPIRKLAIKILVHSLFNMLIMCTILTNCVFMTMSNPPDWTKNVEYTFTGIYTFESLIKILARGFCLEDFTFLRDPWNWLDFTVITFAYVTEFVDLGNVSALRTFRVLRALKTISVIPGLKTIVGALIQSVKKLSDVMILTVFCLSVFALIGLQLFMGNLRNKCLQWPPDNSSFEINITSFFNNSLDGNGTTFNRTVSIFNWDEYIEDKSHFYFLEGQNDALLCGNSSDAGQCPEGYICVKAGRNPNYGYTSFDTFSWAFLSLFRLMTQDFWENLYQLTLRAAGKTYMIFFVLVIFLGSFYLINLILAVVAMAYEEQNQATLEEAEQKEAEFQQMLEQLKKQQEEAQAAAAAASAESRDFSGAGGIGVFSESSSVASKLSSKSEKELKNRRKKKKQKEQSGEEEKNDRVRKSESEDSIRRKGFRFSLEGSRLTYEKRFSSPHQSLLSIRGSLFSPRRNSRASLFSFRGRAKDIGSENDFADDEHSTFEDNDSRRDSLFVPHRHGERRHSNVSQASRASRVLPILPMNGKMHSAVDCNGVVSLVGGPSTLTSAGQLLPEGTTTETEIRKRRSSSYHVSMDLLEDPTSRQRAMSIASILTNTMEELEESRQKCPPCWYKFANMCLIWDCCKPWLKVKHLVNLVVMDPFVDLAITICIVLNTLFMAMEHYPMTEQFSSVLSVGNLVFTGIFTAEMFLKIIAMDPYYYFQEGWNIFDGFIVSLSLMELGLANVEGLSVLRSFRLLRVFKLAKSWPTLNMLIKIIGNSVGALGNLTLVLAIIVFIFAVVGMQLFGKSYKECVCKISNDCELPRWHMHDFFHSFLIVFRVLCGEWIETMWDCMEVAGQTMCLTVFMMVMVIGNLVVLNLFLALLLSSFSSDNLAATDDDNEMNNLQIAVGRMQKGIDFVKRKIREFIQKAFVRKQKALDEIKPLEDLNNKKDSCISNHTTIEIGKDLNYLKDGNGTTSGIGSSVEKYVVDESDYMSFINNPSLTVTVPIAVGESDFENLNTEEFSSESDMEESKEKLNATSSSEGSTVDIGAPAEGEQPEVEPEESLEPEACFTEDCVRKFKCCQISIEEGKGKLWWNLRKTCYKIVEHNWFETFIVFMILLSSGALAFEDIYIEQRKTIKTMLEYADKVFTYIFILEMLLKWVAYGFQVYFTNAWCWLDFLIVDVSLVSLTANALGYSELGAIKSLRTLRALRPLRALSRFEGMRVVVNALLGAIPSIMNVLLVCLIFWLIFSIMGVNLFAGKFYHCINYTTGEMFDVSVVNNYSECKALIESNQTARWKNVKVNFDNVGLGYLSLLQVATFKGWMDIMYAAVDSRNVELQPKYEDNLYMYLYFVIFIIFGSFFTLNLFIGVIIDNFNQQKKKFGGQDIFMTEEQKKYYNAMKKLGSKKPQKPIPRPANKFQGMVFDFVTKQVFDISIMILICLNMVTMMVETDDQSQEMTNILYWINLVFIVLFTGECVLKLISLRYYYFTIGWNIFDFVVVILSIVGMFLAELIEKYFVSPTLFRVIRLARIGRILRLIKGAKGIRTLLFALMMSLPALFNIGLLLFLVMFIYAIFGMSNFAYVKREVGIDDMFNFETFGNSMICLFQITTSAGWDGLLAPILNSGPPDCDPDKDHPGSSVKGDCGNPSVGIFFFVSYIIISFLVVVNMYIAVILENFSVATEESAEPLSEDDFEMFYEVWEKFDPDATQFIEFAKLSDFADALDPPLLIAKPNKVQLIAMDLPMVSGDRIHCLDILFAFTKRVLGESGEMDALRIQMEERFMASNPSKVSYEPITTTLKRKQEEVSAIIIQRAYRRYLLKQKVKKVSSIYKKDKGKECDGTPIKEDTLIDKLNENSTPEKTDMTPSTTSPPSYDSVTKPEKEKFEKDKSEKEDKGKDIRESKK

Regarding `Cc1noc(Cn2ncc3ccc(-c4ccc(OC(F)(F)F)cc4)cc3c2=O)n1` [III-2, 2-((3-methyl-1,2,4-oxadiazol-5-yl)methyl)-7-(4-(trifluoromethoxy)phenyl)phthalazin-1(2H)-one], the inhibition at 1 µM was 5% on Human Nav1.2; 40% in data set [1] (% inhibition at 1 μM, read-out: NAv1.5*-LATE-); 40% in data set [1] (percent block of late INa, compound at 1 μM, 10 μM Tefluthrin, HEK293 hNav1.5, read-out: Late INa 1 μM); 27.6% at hNav1.1. In data set [2], this compound returned an MS Human THalf of 333 min. Also, in data set [3], the MS Rat THalf worked out at 222 min. In data set [4], the MS Dog THalf was determined as 68 min.
